These results are taken from patent US10328053B2 (Gilead Sciences, Inc., priority 2016, dated 2019).

The series in a line: Hepatic Stability Assay (in vitro half-life method). The series is classed as in vitro ADME. The settings on record: pooled cryopreserved hepatocytes, 37° C., 1×10^6 cells/mL, 0-6 hours, LC-MS/MS, 39.5 hours is the maximum detectable half life, read-out: t½ (converted). The arrangement: dose or concentration left out as unconfirmed. On the procedure:
Hepatic Stability Assay The metabolic stability of certain compounds disclosed herein was assessed in vitro in pooled cryopreserved hepatocytes using the in vitro half-life method. Incubations were at 37° C. and final concentrations in the incubations were 1×10^6 cells/mL and […] test concentration of the compound. Aliquots were sequentially removed after 0, 1, 3 and 6 hours and analyzed by LC-MS/MS. In vitro half-life was determined by measuring the rate of disappearance of the compound and then scaled to predicted hepatic clearance using the well-stirred model. […] As such, compounds having a value of 39.5 may have a half live that exceeds 39.5 hours.
Turning to `CNC(=O)C1(NC(=O)C(=O)c2c(C)c(C(=O)Nc3ccc(F)c(Cl)c3)n3c2CCC3C)CC(F)(F)C1` (racemic) [Example 18, N-(3-chloro-4-fluorophenyl)-7-(2-((3,3-difluoro-1-(methylcarbamoyl)cyclobutyl)amino)-2-oxoacetyl)-3,6-dimethyl-2,3-dihydro-1H-pyrrolizine-5-carboxamide], the half-life was 6 h.

Turning to `Cc1c(C(=O)C(=O)N[C@H](C)C(F)(F)F)c2n(c1C(=O)Nc1ccc(F)c(Cl)c1)C(C)CC2` (mixture of isomers) [Example 20, N-(3-chloro-4-fluorophenyl)-3,6-dimethyl-7-(2-oxo-2-(((R)-1,1,1-trifluoropropan-2-yl)amino)acetyl)-2,3-dihydro-1H-pyrrolizine-5-carboxamide], the half-life was 14.3 h.

As for `Cc1c(C(=O)C(=O)N[C@H](C)C(F)(F)F)c2n(c1C(=O)Nc1ccc(F)c(Cl)c1)C(C)CC2` (single isomer, unassigned) [Example 24], the half-life was 5 h.

As for `Cc1c(C(=O)C(=O)N[C@H](C)C(F)(F)F)c2n(c1C(=O)Nc1ccc(F)c(Cl)c1)CCC2` [Example 2, (R)—N-(3-chloro-4-fluorophenyl)-6-methyl-7-(2-oxo-2-((1,1,1-trifluoropropan-2-yl)amino)acetyl)-2,3-dihydro-1H-pyrrolizine-5-carboxamide], the half-life is 15 h.

Turning to `CNC(=O)C1(NC(=O)C(=O)c2c(C)c(C(=O)Nc3ccc(F)c(Cl)c3)n3c2CCC3)CC(F)(F)C1` [Example 3, N-(3-chloro-4-fluorophenyl)-7-(2-((3,3-difluoro-1-(methylcarbamoyl)cyclobutyl)amino)-2-oxoacetyl)-6-methyl-2,3-dihydro-1H-pyrrolizine-5-carboxamide], the half-life was 35.1 h.

Turning to `CNC(=O)C1(NC(=O)C(=O)c2c(C)c(C(=O)Nc3ccc(F)c(Cl)c3)n3c2C[C@@H]2C[C@@H]23)CC(F)(F)C1` [Example 4, (1aS,6aS)—N-(3-chloro-4-fluorophenyl)-5-(2-((3,3-difluoro-1 (methylcarbamoyl)cyclobutyl)amino)-2-oxoacetyl)-4-methyl-1,1a,6,6a-tetrahydrocyclopropa[b]pyrrolizine-3-carboxamide], the half-life was 7.3 h.

Regarding `CNC(=O)C1(NC(=O)C(=O)c2c(C)c(C(=O)Nc3ccc(F)c(Cl)c3)n3c2C[C@H]2C[C@H]23)CC(F)(F)C1` [Example 5, (1aR,6aR)—N-(3-chloro-4-fluorophenyl)-5-(2-((3,3-difluoro-1-(methylcarbamoyl)cyclobutyl)amino)-2-oxoacetyl)-4-methyl-1,1a,6,6a-tetrahydrocyclopropa[b]pyrrolizine-3-carboxamide], the half-life is 5.2 h.

Consider `Cc1c(C(=O)C(=O)NC2(CN3CC4(COC4)C3)CC(F)(F)C2)c2n(c1C(=O)Nc1ccc(F)c(Cl)c1)CCC2` [Example 10, 7-(2-((1-((2-oxa-6-azaspiro[3.3]heptan-6-yl)methyl)-3,3-difluorocyclobutyl)amino)-2-oxoacetyl)-N-(3-chloro-4-fluorophenyl)-6-methyl-2,3-dihydro-1H-pyrrolizine-5-carboxamide], for which the half-life was 1 h.

`CNC(=O)C1(NC(=O)C(=O)c2c(C)c(C(=O)Nc3ccc(F)c(Cl)c3)n3c2CCC3(C)C)CC(F)(F)C1` [Example 15, N-(3-chloro-4-fluorophenyl)-7-(2-((3,3-difluoro-1-(methylcarbamoyl)cyclobutyl)amino)-2-oxoacetyl)-3,3,6-trimethyl-2,3-dihydro-1H-pyrrolizine-5-carboxamide]: the half-life was 0.5 h.

As to `Cc1c(C(=O)C(=O)N[C@H](C)C(F)(F)F)c2n(c1C(=O)Nc1ccc(F)c(Cl)c1)C(C)(C)CC2` [Example 17, (R)—N-(3-chloro-4-fluorophenyl)-3,3,6-trimethyl-7-(2-oxo-2-((1,1,1-trifluoropropan-2-yl)amino)acetyl)-2,3-dihydro-1H-pyrrolizine-5-carboxamide], the half-life is 0.6 h.

For the compound `Cc1c(C(=O)C(=O)NC2(c3c[nH]nn3)CC2)c2n(c1C(=O)Nc1cc(F)c(F)c(F)c1)CCC2` [Example 26, 7-(2-((1-(1H-1,2,3-triazol-4-yl)cyclopropyl)amino)-2-oxoacetyl)-6-methyl-N-(3,4,5-trifluorophenyl)-2,3-dihydro-1H-pyrrolizine-5-carboxamide], the half-life is 8.2 h.

Turning to `CNC(=O)C1(NC(=O)C(=O)c2c(C)c(C(=O)Nc3ccc(F)c(C#N)c3)n3c2C[C@H]2C[C@H]23)CC(F)(F)C1` [Example 30, (1aR,6aR)—N-(3-cyano-4-fluorophenyl)-5-(2-((3,3-difluoro-1-(methylcarbamoyl)cyclobutyl)amino)-2-oxoacetyl)-4-methyl-1,1a,6,6a-tetrahydrocyclopropa[b]pyrrolizine-3-carboxamide], the half-life is 27.2 h.

`Cc1c(C(=O)C(=O)NC2(c3c[nH]nn3)CC2)c2n(c1C(=O)Nc1ccc(F)c(F)c1)CCC2` [Example 43, 7-(2-((1-(1H-1,2,3-triazol-4-yl)cyclopropyl)amino)-2-oxoacetyl)-N-(3,4-difluorophenyl)-6-methyl-2,3-dihydro-1H-pyrrolizine-5-carboxamide]: the half-life was 16 h.

For `Cc1c(C(=O)C(=O)NC2(c3nnn(C)n3)CC2)c2n(c1C(=O)Nc1ccc(F)c(Cl)c1)CCC2` [Example 50, N-(3-chloro-4-fluorophenyl)-6-methyl-7-(2-((1-(2-methyl-2H-tetrazol-5-yl)cyclopropyl)amino)-2-oxoacetyl)-2,3-dihydro-1H-pyrrolizine-5-carboxamide], the half-life is 15.3 h.

For `Cc1nnc(C2(NC(=O)C(=O)c3c(C)c(C(=O)Nc4ccc(F)c(Cl)c4)n4c3CCC4)CC2)[nH]1` [Example 51, N-(3-chloro-4-fluorophenyl)-6-methyl-7-(2-((1-(5-methyl-4H-1,2,4-triazol-3-yl)cyclopropyl)amino)-2-oxoacetyl)-2,3-dihydro-1H-pyrrolizine-5-carboxamide], the half-life is 9.5 h.

Turning to `Cc1c(C(=O)C(=O)NC2(c3c[nH]nn3)CC(F)(F)C2)c2n(c1C(=O)Nc1ccnc(C(F)F)c1)CCC2` [Example 55, 7-(2-((3,3-difluoro-1-(1H-1,2,3-triazol-4-yl)cyclobutyl)amino)-2-oxoacetyl)-N-(2-(difluoromethyl)pyridin-4-yl)-6-methyl-2,3-dihydro-1H-pyrrolizine-5-carboxamide], the half-life was 15.5 h.

Turning to `Cc1c(C(=O)C(=O)NC2(c3nncs3)CC2)c2n(c1C(=O)Nc1ccc(F)c(C#N)c1)[C@@H]1C[C@@H]1C2` [Example 58, (1aR,6aR)-5-(2-((1-(1,3,4-thiadiazol-2-yl)cyclopropyl)amino)-2-oxoacetyl)-N-(3-cyano-4-fluorophenyl)-4-methyl-1,1a,6,6a-tetrahydrocyclopropa[b]pyrrolizine-3-carboxamide], the half-life was 38.5 h.

Take `Cc1c(C(=O)C(=O)NC2(c3c[nH]nn3)CC(F)(F)C2)c2n(c1C(=O)Nc1ccnc(C(F)F)c1F)CCC2` [Example 59, 7-(2-((3,3-difluoro-1-(1H-1,2,3-triazol-4-yl)cyclobutyl)amino)-2-oxoacetyl)-N-(2-(difluoromethyl)-3-fluoropyridin-4-yl)-6-methyl-2,3-dihydro-1H-pyrrolizine-5-carboxamide]: the half-life was 22.3 h.

Consider `Cc1c(C(=O)C(=O)NC2(c3nncs3)CC2)c2n(c1C(=O)Nc1ccc(F)c(F)c1)[C@@H]1C[C@@H]1C2` [Example 61, (1aR,6aR)-5-(2-((1-(1,3,4-thiadiazol-2-yl)cyclopropyl)amino)-2-oxoacetyl)-N-(3,4-difluorophenyl)-4-methyl-1,1a,6,6a-tetrahydrocyclopropa[b]pyrrolizine-3-carboxamide], for which the half-life is 5.4 h.

With `Cc1c(C(=O)C(=O)NC2(c3nncs3)CC2)c2n(c1C(=O)Nc1ccnc(C(F)F)c1)[C@@H]1C[C@@H]1C2` [Example 62, (1aR,6aR)-5-(2-((1-(1,3,4-thiadiazol-2-yl)cyclopropyl)amino)-2-oxoacetyl)-N-(2-(difluoromethyl)pyridin-4-yl)-4-methyl-1,1a,6,6a-tetrahydrocyclopropa[b]pyrrolizine-3-carboxamide], the half-life is 5.3 h.

As for `Cc1c(C(=O)C(=O)NC2(c3c[nH]nn3)CC2)c2n(c1C(=O)Nc1ccnc(C(F)F)c1F)[C@@H]1C[C@@H]1C2` [Example 63, (1aR,6aR)-5-(2-((1-(1H-1,2,3-triazol-4-yl)cyclopropyl)amino)-2-oxoacetyl)-N-(2-(difluoromethyl)-3-fluoropyridin-4-yl)-4-methyl-1,1a,6,6a-tetrahydrocyclopropa[b]pyrrolizine-3-carboxamide], the half-life is 11.2 h.

As for `Cc1nnc(C2(NC(=O)C(=O)c3c(C)c(C(=O)Nc4ccc(F)c(Cl)c4)n4c3CCC4)CC2)o1` [Example 64, N-(3-chloro-4-fluorophenyl)-6-methyl-7-(2-((1-(5-methyl-1,3,4-oxadiazol-2-yl)cyclopropyl)amino)-2-oxoacetyl)-2,3-dihydro-1H-pyrrolizine-5-carboxamide], the half-life is 13.2 h.

Turning to `Cc1nnc(C2(NC(=O)C(=O)c3c(C)c(C(=O)Nc4cc(F)c(F)c(F)c4)n4c3CCC4)CC2)o1` [Example 65, 6-methyl-7-(2-((1-(5-methyl-1,3,4-oxadiazol-2-yl)cyclopropyl)amino)-2-oxoacetyl)-N-(3,4,5-trifluorophenyl)-2,3-dihydro-1H-pyrrolizine-5-carboxamide], the half-life was 14.8 h.

Take `Cc1c(C(=O)C(=O)NC2(c3c[nH]nn3)CC2)c2n(c1C(=O)Nc1cccc(F)c1)CCC2` [Example 69, 7-(2-((1-(1H-1,2,3-triazol-4-yl)cyclopropyl)amino)-2-oxoacetyl)-N-(3-fluorophenyl)-6-methyl-2,3-dihydro-1H-pyrrolizine-5-carboxamide]: the half-life is 17 h.
